Data set [1] concerns A375 cells. The data set can be described thus: 72-hour cell viability assay (Alamar Blue), A375. The data set is classed as cell-based, human. The conditions noted are these: for IC50: 72-hour incubation, Alamar Blue, V600E BRAF. Summed up:
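72 h treatment, 1% DMSO final, Alamar Blue endpoint.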

The subject of data set [2] is HT29 cells. Briefly: 72-hour cell viability assay (Alamar Blue), HT29. The data set is classed as cell-based. The conditions noted are these: colon. As for the experimental part: (§1) Cell Culture and reagents. All cell lines were grown in a 37° C., 5% CO2, humidified environment, in media containing 1% penicillin/streptomycin. Cell culture conditions are as follows: MDCK cells transfected with MDR1 (or ABCB1) were obtained from the Netherlands Cancer Institute (Amsterdam, The Netherlands) and maintained in DMEM with 10% fetal bovine serum (FBS, Gemini). Traditional cell lines A375, CHL-1, B16F10, and U118MG were grown in DMEM with 10% FBS, SK-MEL-28, U87 and T98G in EMEM with 10% FBS, AM-38 in EMEM with 20% HI-FBS (Gibco), HT29 in McCoy's 5A with 10% FBS, HCT116 in RPMI with 10% FBS. Compounds were dissolved in DMSO (1% final concentration, Sigma-Aldrich) for cell culture studies.
(§2) Cell viability assays. Cells were harvested, seeded in a 96-well plate and allowed to adhere overnight. Compound was added to each well in DMSO (1% final concentration). Cells were incubated for 72 hours before viability was assessed by the Alamar Blue Assay. Raptinal ([…]) was used as a dead control.

The test system of data set [3] is B16F10 cells. The data set can be described thus: 72-hour cell viability assay (Alamar Blue), B16F10. The data set is classed as cell-based. As to the method: as §1, §2
In data set [4] the test system is HCT116 cells. The data set can be described thus: 72-hour cell viability assay (Alamar Blue), HCT116. It counts as cell-based. As to the method:
as §1, §2

Data set [5] relates to SK-MEL-28 cells. Briefly: 72-hour cell viability assay (Alamar Blue), SK-MEL-28. The data set is classed as cell-based. The note with it: melanoma. As to the method: as §1, §2
For data set [6], the system named is T98G cells. The data set can be described thus: 72-hour cell viability assay (Alamar Blue), T98G. The data set is classed as cell-based. The conditions noted are these: WT BRAF. As for the experimental part:
as §1, §2

For data set [7], the system named is CHL-1 cells. The data set can be described thus: 72-hour cell viability assay (Alamar Blue), CHL-1. It counts as cell-based. As for the experimental part:
as §1, §2

For data set [8], the target named is T1, P-gp (Homo sapiens, UniProt P08183).
T1 construct: host or cells: MDCK (MDR1-MDCK)
T1 sequence (P08183 whole entry): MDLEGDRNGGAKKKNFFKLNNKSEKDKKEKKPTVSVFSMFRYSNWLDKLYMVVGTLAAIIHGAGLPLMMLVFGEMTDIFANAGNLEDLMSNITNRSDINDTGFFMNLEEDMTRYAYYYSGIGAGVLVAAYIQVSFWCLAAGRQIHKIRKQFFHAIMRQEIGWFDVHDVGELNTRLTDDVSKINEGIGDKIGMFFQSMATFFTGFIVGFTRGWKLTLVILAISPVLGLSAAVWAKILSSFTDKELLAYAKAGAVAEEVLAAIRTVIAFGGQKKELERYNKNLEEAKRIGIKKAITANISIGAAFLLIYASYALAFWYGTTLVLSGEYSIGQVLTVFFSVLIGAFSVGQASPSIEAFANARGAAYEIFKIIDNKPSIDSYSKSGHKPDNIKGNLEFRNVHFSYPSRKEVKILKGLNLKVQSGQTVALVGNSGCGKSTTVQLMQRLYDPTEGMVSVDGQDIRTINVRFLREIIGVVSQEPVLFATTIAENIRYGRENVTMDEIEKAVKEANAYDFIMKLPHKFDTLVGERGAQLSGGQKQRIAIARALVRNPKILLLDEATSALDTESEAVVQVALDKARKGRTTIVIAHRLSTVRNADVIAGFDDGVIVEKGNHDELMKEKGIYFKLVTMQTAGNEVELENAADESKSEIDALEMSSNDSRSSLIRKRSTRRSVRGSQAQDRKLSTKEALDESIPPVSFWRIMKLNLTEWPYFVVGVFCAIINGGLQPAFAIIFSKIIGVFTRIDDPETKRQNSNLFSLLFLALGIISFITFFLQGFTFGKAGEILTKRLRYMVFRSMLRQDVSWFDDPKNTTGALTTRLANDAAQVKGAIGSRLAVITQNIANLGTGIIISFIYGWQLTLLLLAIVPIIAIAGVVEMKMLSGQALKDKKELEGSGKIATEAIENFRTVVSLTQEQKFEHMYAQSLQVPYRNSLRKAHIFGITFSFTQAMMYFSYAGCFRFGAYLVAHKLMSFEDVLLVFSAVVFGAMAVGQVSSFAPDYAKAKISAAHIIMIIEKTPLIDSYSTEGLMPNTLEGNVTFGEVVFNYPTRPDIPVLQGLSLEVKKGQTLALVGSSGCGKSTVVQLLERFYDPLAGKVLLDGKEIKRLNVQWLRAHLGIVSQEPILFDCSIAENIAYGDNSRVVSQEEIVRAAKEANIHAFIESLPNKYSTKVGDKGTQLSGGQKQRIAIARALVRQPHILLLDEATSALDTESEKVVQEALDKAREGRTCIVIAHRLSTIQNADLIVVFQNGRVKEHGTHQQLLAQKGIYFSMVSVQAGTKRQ
The data set can be described thus: MDR1-MDCK P-gp transwell bidirectional transport assay. The data set is classed as in vitro ADME. The conditions noted are these: for Papp A→B at 90 min, 10 µM / Papp B→A at 90 min, 10 µM / efflux ratio at 90 min, 10 µM / Papp at 90 min, 10 µM: dog; for Papp A→B at 90 min, 10 µM / Papp B→A at 90 min, 10 µM / efflux ratio at 90 min, 10 µM: MDCK-MDR1, MDR1-MDCK; for efflux ratio at 90 min, 10 µM: read-out: ER (efflux ratio) (converted); for Papp at 90 min, 10 µM: MDCK-MDR1, range of Papp A-B to B-A, read-out: cell culture permeabilities; for ER (efflux ratio) / Papp A-B / Papp B-A: MDR1-MDCK; for Papp A→B at 90 min, 10 µM / Papp B→A at 90 min, 10 µM / efflux ratio at 90 min, 10 µM / ER (efflux ratio) / Papp A-B / Papp B-A: 10 μM, 90 min. The method in brief: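 MDR1-MDCK monolayers grown 80-96 h on transwell filters; compounds at 10 μM final (1% DMSO) incubated 90 min at 37 °C with shaking, in apical-to-basolateral and basolateral-to-apical directions. Donor and receiver samples quantified by LC-MS/MS; monolayer integrity checked with Lucifer Yellow. Permeability and efflux ratio calculated.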

For data set [9], the system named is AM-38 cells. The data set can be described thus: 72-hour cell viability assay (Alamar Blue), AM-38. It counts as cell-based. The conditions noted are these: glioma. As for the experimental part:
as §1, §2

For data set [10], the system named is U118MG cells. Briefly: 72-hour cell viability assay (Alamar Blue), U118MG. The data set is classed as cell-based. The conditions noted are these: WT BRAF. As for the experimental part:
as §1, §2

[11] abbreviates: Homo sapiens, HT-29, V600E BRAF.
The mark [12] stands for this setting: Mus musculus, B16-F10, WT BRAF, melanoma, read-out: B16F10 (WT) IC50.
The mark [13] stands for this setting: Mus musculus, B16-F10, WT BRAF, read-out: B16F10 IC50.
[14] abbreviates: Homo sapiens, HCT-116, WT BRAF, colon, read-out: HCT116 (WT) IC50.
Where [15] appears, read: Homo sapiens, HCT-116, WT BRAF, read-out: HCT116 IC50.
[16] abbreviates: Homo sapiens, SK-MEL-28, V600E BRAF.
Setting [17] is: Homo sapiens, T98G, glioma, read-out: T98G (WT) IC50.
[18] abbreviates: Homo sapiens, T98G, read-out: T98G IC50.
Where [19] appears, read: Homo sapiens, CHL-1, WT BRAF, melanoma, read-out: CHL-1 (WT) IC50.
[20] abbreviates: Homo sapiens, CHL-1, WT BRAF, read-out: CHL-1 IC50.
The mark [21] stands for this setting: Homo sapiens, AM-38, V600E BRAF.
The mark [22] stands for this setting: Homo sapiens, U-118-MG, glioma, read-out: U118MG (WT) IC50.
[23] abbreviates: Homo sapiens, U-118-MG, read-out: U118MG IC50.

Like-named read-outs stand apart in the source and are kept apart here.

As to `CCCS(=O)(=O)Nc1cc(Cl)cc(-c2nc(C(C)(C)C)sc2-c2ccnc(N)n2)c1F` [6-261, N-(3-(5-(2-aminopyrimidin-4-yl)-2-(tert-butyl)thiazol-4-yl)-5-chloro-2-fluorophenyl)propane-1-sulfonamide], the IC50 in data set [1] (Homo sapiens, A-375, 72 h) is 2.8 ± 0.53 nM; in data set [2] (setting [11]), 1.67 ± 0.36 nM; in [3] (setting [12]), above 1000 nM; in data set [3] (setting [13]) it was above 1000 nM; in [4] (setting [14]), above 1000 nM; in [4] (setting [15]) it was above 1000 nM. Moreover, the IC50 in data set [5] (setting [16]) is 2.35 ± 0.13 nM; in data set [6] (setting [17]) it was above 1000 nM; in [6] (setting [18]), above 1000 nM; in data set [7] (setting [19]) it was above 1000 nM; in [7] (setting [20]) it was above 1000 nM; in data set [9] (setting [21]) it was 8.5 ± 1.2 nM. For the same molecule, the IC50 in data set [10] (setting [22]) and in data set [10] (setting [23]) was above 1000 nM each time. Besides, the Papp A→B at 90 min, 10 µM in data set [8] was 4.92 ± 0.806 ×10⁻⁶ cm/s. The molecule further returned a Papp B→A at 90 min, 10 µM in data set [8] of 6.42 ± 2.45 ×10⁻⁶ cm/s. For the same molecule, in data set [8], the efflux ratio at 90 min, 10 µM was 1.4. Moreover, the Papp at 90 min, 10 µM in data set [8] was 4.9 to 6.4 ×10⁻⁶ cm/s.

`CCCS(=O)(=O)Nc1cc(Cl)cc(-c2nc(C(C)(C)C)sc2-c2ccnc(NCCCCC(=O)O)n2)c1F` [6-263, 5-((4-(2-(tert-butyl)-4-(5-chloro-2-fluoro-3-(propylsulfonamido)phenyl)thiazol-5-yl)pyrimidin-2-yl)amino)pentanoic acid]: the IC50 in data set [1] (Homo sapiens, A-375, 72 h) is 27.3 ± 3.01 nM; in data set [2] (setting [11]), 21.4 ± 4.21 nM; in data set [3] (setting [12]), above 10000 nM; in data set [3] (setting [13]), above 10000 nM; in data set [4] (setting [14]), 2100 ± 456 nM; in data set [4] (setting [15]), 2100 ± 456 nM. For the same molecule, the IC50 is 22.5 ± 1.2 nM in [5] (setting [16]); above 10000 nM in data set [6] (setting [17]); above 10000 nM in [6] (setting [18]); above 10000 nM in [7] (setting [19]); above 10000 nM in data set [7] (setting [20]); 93.2 ± 14.1 nM in [9] (setting [21]). Besides, the IC50 in [10] (setting [22]) and in data set [10] (setting [23]) was above 10000 nM throughout. This molecule showed a Papp A→B at 90 min, 10 µM in [8] of 2.15 ± 0.07 ×10⁻⁶ cm/s. The molecule also came in with a Papp B→A at 90 min, 10 µM in data set [8] of 2.49 ± 0.435 ×10⁻⁶ cm/s. Also, the efflux ratio at 90 min, 10 µM in [8] was 1.17. In addition, the Papp at 90 min, 10 µM in data set [8] lay within 2.2 to 2.5 ×10⁻⁶ cm/s.

As for `CC(C)(C)c1nc(-c2cccc(NS(=O)(=O)c3c(F)cccc3F)c2F)c(-c2ccnc(N)n2)s1` [Dabrafenib, reference compound], the IC50 was 7.46 ± 1.1 nM in [1]; 5.38 ± 0.38 nM in data set [1] (listed as 6-74); 4.74 ± 0.84 nM in data set [2] (V600E BRAF); above 1000 nM in data set [3] (WT BRAF, read-out: B16F10 IC50); above 1000 nM in data set [4] (WT BRAF, read-out: HCT116 IC50); 4.76 ± 0.42 nM in data set [5] (V600E BRAF). Further, the IC50 in [6] (read-out: T98G IC50) was above 1000 nM; in data set [7] (WT BRAF, read-out: CHL-1 IC50) it was above 1000 nM; in data set [9] (V600E BRAF), 6.84 ± 0.84 nM; in data set [10] (read-out: U118MG IC50), above 1000 nM. Besides, the “% Emax” value in [1] (A375, 72-hour incubation) is given as 65%. The entries for the “ER (efflux ratio)” value in [8] and in [8] (listed as dabrafenib) were 17.94 ± 6.97 and 17.9, respectively. In addition, the figures for the “Papp A-B” value in data set [8] and in data set [8] (listed as 6-74) were 1.26 ± 0.672 ×10⁻⁶ cm/s and 1.257 ± 0.672 ×10⁻⁶ cm/s, respectively. The “Papp B-A” value stood at 13.2 ± 1.63 ×10⁻⁶ cm/s in [8] and 13.192 ± 1.632 ×10⁻⁶ cm/s in data set [8] (listed as 6-74).
